Test results published in US9687529B2, “Method of controlling coagulation” (Duke University, priority 2011, dated 2017).
“Also recorded” adds a separate entry of the source.

Columns and labels:
[1] = test system: clot formation in normal human platelet poor plasma; experiment: Activated partial thromboplastin time (aPTT) plasma clotting assay; type: biochemical; conditions: for increase of aPTT clotting time: 4 μM aptamer
Protocol: The activated partial thromboplastin time (aPTT) and prothrombin time (PT) assays were performed on a model ST4 mechanical coagulometer (Diagnostica Stago, Parsippany, N.J.) as previously described (Bompiani et al, J Thromb Haemost 10:870-80 (2012)). For the aPTT, 50 μL of normal human platelet poor plasma (PPP) was incubated with 50 μL TriniClot aPTT S (Trinity BioTech, Bray, Co Wicklow, Ireland) at 37° C. for 5 min. Aptamer(s) (5 μL) was added, and the mixture was incubated at 37° C. for another 5 min, and CaCl2 (50 μL) was added to initiate the assay. For the PT, 50 μL of normal human PPP was incubated with 5 μL of aptamer(s) at 37° C. for 5 min. TriniClot PT Excel reagent (Trinity BioTech, Bray, Co Wicklow, Ireland) (100 μL) was added to initiate the reaction. Assays with a combination of two aptamers contain an equimolar concentration of each individual aptamer, and the data shown are the total RNA concentration.
To compare the anticoagulant effect of these four aptamers, dose-response titrations were performed in several clinical plasma-based clotting assays. The activated partial thromboplastin time (aPTT) and prothrombin time (PT) are plasma clotting assays that are clinically used to probe for abnormalities in the intrinsic and extrinsic coagulation pathways, respectively (Van Cott et al, editors. Jacobs & DeMott laboratory test handbook. 5th ed. Hudson Ohio: Lexi-Comp. p. 327-58 (2001)). These relatively simple assays measure the time until clot formation in platelet poor plasma (PPP) in response to either robust tissue factor (TF), or contact stimulation via negatively charged surfaces (i.e., silica, kaolin, celite). […] At high concentrations, the prothrombin aptamer (R9D-14T) was the most robust anticoagulant and inhibited greater than 96% of prothrombin activity in the aPTT and PT. At 4 μM, R9D-14T increased the aPTT clotting time approximately 18-fold and the PT clotting time greater than 80-fold (exceeded the assay limit of 999 sec). […] At the same dose, the FIXa aptamer (9.3T) inhibited greater than 99% of FIX activity and increased the aPTT clotting time approximately 5.5-fold, while the FVIIa aptamer (7S-1) increased the PT clotting time 3-fold and inhibited greater than 99% of FVII activity (FIGS. 20A and 20B).

[2] = test system: thrombin generation in normal human platelet poor plasma; experiment: Calibrated automated thrombography (CAT); type: biochemical
Protocol: Normal human platelet poor plasma (80 μL) was mixed with aptamer(s) (10 μL) in an Immunolon 2HB U Bottom Mictrotiter 96-well plate (Thermo Labsystems, Franklin, Mass.) and incubated at 37° C. for 5 min. PPP reagent (Diagnostica Stago, Parsippany, N.J.) (either 1 ρM or 5 ρM TF, 20 μL, Diagnostica Stago) was added, and the mixture was incubated at 37° C. for another 5 min. FluCa (Diagnostica Stago) (10 μL) was added to initiate the assay and thrombin generation was measured for 60 minutes at 37° C. with a Fluoroskan Ascent fluorometer (ThermoLabsystem, Helsinki, Finland) according to the manufacturer's instructions. The amount of thrombin generated was quantified by comparison to an assay with thrombin calibrator reagent (Diagnostica Stago) that has a known activity toward the fluorogenic substrate. The lag time, peak amount of thrombin generated, and endogenous thrombin potential (ETP) were automatically calculated by the Thrombinoscope software (Thrombinoscope BV, the Netherlands).
Thrombin is the final protease formed in the coagulation cascade, and the rate of thrombin generation and the total amount of thrombin generated is associated with blood clot formation and stability (Wolberg, Blood Rev 21:131-42 (2007)). To gain more information about the impact of aptamer anticoagulation on the kinetics of thrombin generation, the individual aptamers were analyzed with calibrated automated thrombography (CAT). The CAT assay measures real-time thrombin generation in plasma by monitoring cleavage of a thrombin-specific fluorogenic substrate in response to TF stimulation (Heruker et al, Pathophysiol Haemost Thromb 33: 4-15 (2003)). The parameters of thrombin generation analyzed include: the lag time (time until thrombin generation begins), the peak (the maximal amount of thrombin generated at a given time) and the endogenous thrombin potential (ETP, the total amount of thrombin generated). Similar to the aPTT and PT clotting assays, all of the individual aptamers dose-dependently impacted the various parameters of thrombin generation (FIG. 21 and Table 1). […] 9.3T minorly impacted all parameters of thrombin generation with the high TF reagent; however, because high concentrations of TF may bypass FIX activity by directly generating FXa, the manufacturer recommends low concentrations of TF for analyzing FIX deficient (i.e, Hemophilia B) plasma in the CAT.

[3] = test system: clot formation in whole blood; experiment: TEG of whole blood, coagulation triggered by kaolin (Example I); type: cell-based; conditions: for α: buffer 44.9 degrees; for MA: buffer 63.1 mm; for R: buffer 6.8 minutes
Protocol: TEG is a waveform generated from serial measurements of the torque transmitted from a small oscillating cup to the tip of a metal pin inserted into the cup by a 360 microliter sample of blood or plasma added to the cup.
A 360 microliter blood sample has been added to the cup. For 180 minutes after the sample is added, the cup oscillates alternatively clockwise and counterclockwise through an arc of 4° 45′ at a frequency of one oscillation cycle—i. e., one clockwise rotation and one counterclockwise rotation—every 10 seconds. The lower end of the pin is immersed by the sample; the upper end is suspended from a torsion wire. The TEG analyzer records a single measurement of rotation-induced torque after each clockwise rotation and after each counterclockwise rotation of the cup. “The torque of the rotating cup is transmitted to the immersed pin only after fibrin-platelet bonding has linked the cup and [the] pin together. The strength of these fibrin-platelet bonds affects the magnitude of the pin motion, such that strong clots move the pin directly in phase with the cup motion. Thus, the magnitude of the output is directly related to the strength of the formed clot . . . . [If] the clot retracts or lyses, these bonds are broken and the transfer of cup motion is diminished. The rotation movement of the pin is converted by a mechanical-electrical transducer to an electrical signal which can be monitored by a computer” (TEG 5000 User Manual, pp 3-4, 1999-2007)). The computer converts the series of electrical signals into the TEG tracing.
In the absence of an anticoagulant (A), R was 6.8 minutes, α was 44.9 degrees, and MA was 63.1 mm. […] Thus, each aptamer, to varying degrees, prolonged the time to clot formation, reduced the rate of clot strengthening, and reduced the ultimate strength of the clot. However, as was true in the previous experiment, no aptamer acting alone at the concentrations tested prevented clot formation.

With “9.3T: FIXa aptamer, 2'-fluoropyrimidine modified RNA, SEQ ID NO: 1 (AUGGGGACUAUACCGCGUAAUGCUGCCUCCCCAU; 2'-fluoro at CU, RNA at AG, backbone not given here) [Aptamer 9.3T]” the “increase of aPTT clotting time” value [1] was “approximately 5.5 fold”, the ETP ([2]; RNA 15 nM, TF 1 ρM) was 1463.50 ± 19.59 nM·min and the Lag-time ([2]; RNA 15 nM, TF 1 ρM) was 3.06 ± 0.15 min. It also gave a Peak ([2]; RNA 15 nM, TF 1 ρM) of 195.04 ± 6.91 nM, a TTP ([2]; RNA 15 nM, TF 1 ρM) of 7.34 ± 0.26 min and an ETP ([2]; RNA 15 nM, TF 5 ρM) of 1812.50 ± 81.01 nM·min. The Lag-time ([2]; RNA 15 nM, TF 5 ρM) was 1.72 ± 0.20 min, the Peak ([2]; RNA 15 nM, TF 5 ρM) was 341.90 ± 12.54 nM and the TTP ([2]; RNA 15 nM, TF 5 ρM) was 4.23 ± 0.24 min. It also gave an ETP ([2]; RNA 30 nM, TF 1 ρM) of 1350.17 ± 28.02 nM·min, a Lag-time ([2]; RNA 30 nM, TF 1 ρM) of 3.00 ± 0.10 min and a Peak ([2]; RNA 30 nM, TF 1 ρM) of 147.88 ± 4.28 nM. For the same substance, the TTP ([2]; RNA 30 nM, TF 1 ρM) was 8.12 ± 0.34 min, the ETP ([2]; RNA 30 nM, TF 5 ρM) was 1723.67 ± 57.51 nM·min and the Lag-time ([2]; RNA 30 nM, TF 5 ρM) was 1.56 ± 0.20 min. It also gave a Peak ([2]; RNA 30 nM, TF 5 ρM) of 316.98 ± 3.28 nM, a TTP ([2]; RNA 30 nM, TF 5 ρM) of 4.28 ± 0.40 min and an ETP ([2]; RNA 60 nM, TF 1 ρM) of 1261.50 ± 64.85 nM·min. The Lag-time ([2]; RNA 60 nM, TF 1 ρM) was 2.89 ± 0.15 min, the Peak ([2]; RNA 60 nM, TF 1 ρM) was 110.65 ± 6.70 nM and the TTP ([2]; RNA 60 nM, TF 1 ρM) was 8.95 ± 0.15 min. The ETP ([2]; RNA 60 nM, TF 5 ρM) was 1741.10 ± 78.84 nM·min, the Lag-time ([2]; RNA 60 nM, TF 5 ρM) was 1.70 ± 0.11 min and the Peak ([2]; RNA 60 nM, TF 5 ρM) was 283.76 ± 3.20 nM. It also gave a TTP ([2]; RNA 60 nM, TF 5 ρM) of 4.90 ± 0.31 min, an ETP ([2]; RNA 120 nM, TF 1 ρM) of 1125.00 ± 31.79 nM·min and a Lag-time ([2]; RNA 120 nM, TF 1 ρM) of 2.72 ± 0.05 min. For the same substance, the Peak ([2]; RNA 120 nM, TF 1 ρM) was 86.13 ± 3.02 nM, the TTP ([2]; RNA 120 nM, TF 1 ρM) was 9.34 ± 0.19 min and the ETP ([2]; RNA 120 nM, TF 5 ρM) was 1674.50 ± 56.02 nM·min. For the same substance, the Lag-time ([2]; RNA 120 nM, TF 5 ρM) was 1.60 ± 0.15 min, the Peak ([2]; RNA 120 nM, TF 5 ρM) was 272.90 ± 9.97 nM and the TTP ([2]; RNA 120 nM, TF 5 ρM) was 4.74 ± 0.37 min. The α ([3]; 2.0 micromolar, kaolin) was 36.6 degrees, the MA ([3]; 2.0 micromolar, kaolin) was 58.6 mm and the R ([3]; 2.0 micromolar, kaolin) was 29.2 min. The “time of clot formation (bifurcation)” value ([3]; FIXa aptamer 0.5 micromolar, kaolin) was 22.1 min.

In the case of “11F7T: FXa aptamer, 2'-fluoropyrimidine modified RNA, SEQ ID NO: 2 (GAGAGCCCCAGCGAGAUAAUACUUGGCCCCGCUCUU; 2'-fluoro at CU, RNA at AG, backbone not given here) [Aptamer 11F7T]”, the “increase of aPTT clotting time” value [1] is reported as “approximately 11 fold”, the ETP ([2]; RNA 125 nM, TF 5 ρM) is reported as 1612.90 ± 142.40 nM·min and the Lag-time ([2]; RNA 125 nM, TF 5 ρM) is reported as 3.00 ± 0.22 min. It also gave a Peak ([2]; RNA 125 nM, TF 5 ρM) of 227.75 ± 43.47 nM, a TTP ([2]; RNA 125 nM, TF 5 ρM) of 7.24 ± 0.77 min and an ETP ([2]; RNA 250 nM, TF 5 ρM) of 1220.50 ± 182.02 nM·min. It also gave a Lag-time ([2]; RNA 250 nM, TF 5 ρM) of 4.94 ± 0.38 min, a Peak ([2]; RNA 250 nM, TF 5 ρM) of 120.68 ± 21.79 nM and a TTP ([2]; RNA 250 nM, TF 5 ρM) of 11.70 ± 1.13 min. It also gave an ETP ([2]; RNA 500 nM, TF 5 ρM) of 738.60 ± 202.92 nM·min, a Lag-time ([2]; RNA 500 nM, TF 5 ρM) of 7.97 ± 0.93 min and a Peak ([2]; RNA 500 nM, TF 5 ρM) of 65.56 ± 14.57 nM. It also gave a TTP ([2]; RNA 500 nM, TF 5 ρM) of 16.47 ± 1.83 min, an ETP ([2]; RNA 1,000 nM, TF 5 ρM) of 459.40 ± 199.39 nM·min and a Lag-time ([2]; RNA 1,000 nM, TF 5 ρM) of 9.50 ± 1.00 min. It also gave a Peak ([2]; RNA 1,000 nM, TF 5 ρM) of 36.84 ± 14.42 nM, a TTP ([2]; RNA 1,000 nM, TF 5 ρM) of 20.10 ± 2.96 min and a α ([3]; 2.0 micromolar, kaolin) of 29.8 degrees. The MA ([3]; 2.0 micromolar, kaolin) was 48.4 mm, the R ([3]; 2.0 micromolar, kaolin) was 22.5 min and the “clot formation in TEG assays, single agents (in words)” value ([3]; data not shown) was “delay, but do not prevent clot formation”.

“R9D-14T: prothrombin/thrombin aptamer, 58-base truncation of RNA9D-14, SEQ ID NO: 3 (GGCGGTCGATCACACAGTTCAAACGTAATAAGCCAATGTACGAGGCAGACGACTCGCC; 2'-fluoro at CT, RNA at AG, backbone and T or U not given here) [Aptamer R9D-14T]” was tested, and the “increase of aPTT clotting time” value [1] was “approximately 18 fold”, the prothrombin activity inhibited ([1]; aPTT, high concentrations) was “greater than 96%” and the ETP ([2]; RNA 625 nM, TF 5 ρM) was 1492.50 ± 54.94 nM·min. For the same substance, the Lag-time ([2]; RNA 625 nM, TF 5 ρM) was 1.55 ± 0.08 min, the Peak ([2]; RNA 625 nM, TF 5 ρM) was 314.82 ± 25.02 nM and the TTP ([2]; RNA 625 nM, TF 5 ρM) was 3.88 ± 0.18 min. It also gave an ETP ([2]; RNA 1,250 nM, TF 5 ρM) of 1293.00 ± 67.66 nM·min, a Lag-time ([2]; RNA 1,250 nM, TF 5 ρM) of 1.55 ± 0.08 min and a Peak ([2]; RNA 1,250 nM, TF 5 ρM) of 269.45 ± 13.17 nM. The TTP ([2]; RNA 1,250 nM, TF 5 ρM) was 3.67 ± 0.18 min, the ETP ([2]; RNA 2,500 nM, TF 5 ρM) was 1170.90 ± 90.47 nM·min and the Lag-time ([2]; RNA 2,500 nM, TF 5 ρM) was 4.37 ± 0.71 min. For the same substance, the Peak ([2]; RNA 2,500 nM, TF 5 ρM) was 192.66 ± 31.04 nM, the TTP ([2]; RNA 2,500 nM, TF 5 ρM) was 7.64 ± 1.31 min and the “thrombin generation (in words)” value ([2]; RNA 5,000 nM (5 μM), TF 5 ρM) was “completely inhibited thrombin generation; also recorded: no thrombin generation detected”. It also gave a α ([3]; 5.0 micromolar, kaolin) of 18.6 degrees, an MA ([3]; 5.0 micromolar, kaolin) of 42.5 mm and an R ([3]; 5.0 micromolar, kaolin) of 31.3 min.
